Test results as given in BigSolDB 2.1.

O=[N+]([O-])c1ccc(S(=O)(=O)[O-])cc1.[Na+]
solubility (mole fraction)
Settings	283.15 K	288.15 K	293.15 K	298.15 K	303.15 K	308.15 K	313.15 K	318.15 K	323.15 K
in THF	0.000109	0.000112	0.000117	0.000122	0.000127	0.000132	0.000138	0.000145	0.000156
in acetone	0.012	0.014	0.0161	0.0182	0.0206	0.0229	0.0258	0.029	0.0323
in cyclohexanone	0.000906	0.000913	0.000917	0.000927	0.000938	0.000954	0.000967	0.000991	0.00101
in ethanol	0.00104	0.00118	0.00133	0.00147	0.00164	0.0018	0.00204	0.00232	0.0026
in ethyl acetate	8.84e-05	9.96e-05	0.000109	0.00012	0.000131	0.000143	0.000157	0.000175	0.000193
in n-butanol	0.000318	0.000405	0.000498	0.000597	0.000699	0.000798	0.000947	0.00111	0.00131
